Test results: US10131932B2, “Method for assaying a protease” (McMaster University, priority 2013, dated 2018)

B1: alpha-2-macroglobulin: thrombin-binding plasma inhibitor protein (protein, UniProt P01023 24-1474, looked up)
Alpha-2-macroglobulin: SVSGKPQYMVLVPSLLHTETTEKGCVLLSYLNETVTVSASLESVRGNRSLFTDLEAENDVLHCVAFAVPKSSSNEEVMFLTVQVKGPTQEFKKRTTVMVKNEDSLVFVQTDKSIYKPGQTVKFRVVSMDENFHPLNELIPLVYIQDPKGNRIAQWQSFQLEGGLKQFSFPLSSEPFQGSYKVVVQKKSGGRTEHPFTVEEFVLPKFEVQVTVPKIITILEEEMNVSVCGLYTYGKPVPGHVTVSICRKYSDASDCHGEDSQAFCEKFSGQLNSHGCFYQQVKTKVFQLKRKEYEMKLHTEAQIQEEGTVVELTGRQSSEITRTITKLSFVKVDSHFRQGIPFFGQVRLVDGKGVPIPNKVIFIRGNEANYYSNATTDEHGLVQFSINTTNVMGTSLTVRVNYKDRSPCYGYQWVSEEHEEAHHTAYLVFSPSKSFVHLEPMSHELPCGHTQTVQAHYILNGGTLLGLKKLSFYYLIMAKGGIVRTGTHGLLVKQEDMKGHFSISIPVKSDIAPVARLLIYAVLPTGDVIGDSAKYDVENCLANKVDLSFSPSQSLPASHAHLRVTAAPQSVCALRAVDQSVLLMKPDAELSASSVYNLLPEKDLTGFPGPLNDQDNEDCINRHNVYINGITYTPVSSTNEKDMYSFLEDMGLKAFTNSKIRKPKMCPQLQQYEMHGPEGLRVGFYESDVMGRGHARLVHVEEPHTETVRKYFPETWIWDLVVVNSAGVAEVGVTVPDTITEWKAGAFCLSEDAGLGISSTASLRAFQPFFVELTMPYSVIRGEAFTLKATVLNYLPKCIRVSVQLEASPAFLAVPVEKEQAPHCICANGRQTVSWAVTPKSLGNVNFTVSAEALESQELCGTEVPSVPEHGRKDTVIKPLLVEPEGLEKETTFNSLLCPSGGEVSEELSLKLPPNVVEESARASVSVLGDILGSAMQNTQNLLQMPYGCGEQNMVLFAPNIYVLDYLNETQQLTPEIKSKAIGYLNTGYQRQLNYKHYDGSYSTFGERYGRNQGNTWLTAFVLKTFAQARAYIFIDEAHITQALIWLSQRQKDNGCFRSSGSLLNNAIKGGVEDEVTLSAYITIALLEIPLTVTHPVVRNALFCLESAWKTAQEGDHGSHVYTKALLAYAFALAGNQDKRKEVLKSLNEEAVKKDNSVHWERPQKPKAPVGHFYEPQAPSAEVEMTSYVLLAYLTAQPAPTSEDLTSATNIVKWITKQQNAQGGFSSTQDTVVALHALSKYGAATFTRTGKAAQVTIQSSGTFSSKFQVDNNNRLLLQQVSLPELPGEYSMKVTGEGCVYLQTSLKYNILPEKEEFPFALGVQTLPQTCDEPKAHTSFQISLSVSYTGSRSASNMAIVDVKMVSGFIPLKPTVKMLERSNHVSRTEVSSNHVLIYLDKVSNQTLSLFFTVLQDVPVRDLKPAIVKVYDYYETDEFAIAEYNAPCSKDLGNA

Key:
[1] = system: thrombin generation in whole blood; experiment: Thrombin generation in unanticoagulated whole blood with FRET-protein substrate; assay type: biochemical, human; details: for area-under-the-curve of slope of the ratio curve / maximal upslope of slope of the ratio curve / peak height of slope of the ratio curve / thrombin generation: increasing amounts of anticoagulant in whole blood
Experimental: In this experiment, 12 μL of unanticoagulated human blood, obtained from a finger prick of a healthy human donor, was added to a plastic vessel (NUNC, Polystyrene, 384 well plate) containing the T13 FRET-protein substrate (8 μL in PIPES buffer, 4.6 μM final concentration) within 30 seconds of lancing the finger. Results were obtained on a fluorescence spectrophotometer, as above, temperature controlled to 37° C. Initially, as the mixture warms, the ratio of emission at 526 nm:581 nm decreases slightly, but then increases, initially sharply to a plateau as shown in FIG. 6.
The slope (first derivative) of the ratio was then determined using a mathematical program such as Excel or GraphPad Prism as shown in FIG. 7A. The curve of the slope of the ratio is smoothed using 20 neighbours using a mathematical program (Excel or GraphPad Prism). This is the typical appearance of a thrombin generation curve in plasma. Parameters that could be used to describe this curve include, but are not limited to, peak height, time to peak, lag time, maximal upslope, and area-under-the curve to a certain time point. FIG. 7B compares a) 12 μL blood combined with FRET-protein substrate (final conc. 4.6 μM) to final volume of 20 μL to b) 20 μL blood combined with FRET-protein substrate (final conc. 5.1 μM) to a final volume of 22.5 μL. The time-to-peak and lag-time are shortened and the peak height, maximal upslope and area-under-the-curve are increased in the latter where the blood is less dilute.
The effect of rivaroxaban on thrombin generation in the blood was determined. Unanticoagulated blood was taken from a finger prick of a healthy volunteer. The blood was added to a plastic vessel containing the FRET-protein substrate (0.62 μM) and rivaroxaban at various concentrations (to a final concentration of 5 μg/L, 25 μg/L and 50 μg/L).
The effect of apixaban on thrombin generation in the blood was also determined. Blood was added to FRET-protein substrate and various concentrations of apixaban was (to a final concentration of 25 μg/L, 100 μg/L, 400 μg/L and 1000 μg/L). Apixaban also alters the shape of the “slope of the ratio curve”.
The effect of dabigatran on thrombin generation in the blood was also determined. Blood was added to FRET-protein substrate and various concentrations of […] was (to a final concentration of 25 μg/L, 100 μg/L and 400 μg/L). Dabigatran also alters the shape of the “slope of the ratio curve”. […]

Thrombin [2] = experiment: Thrombin activity on T13 FRET-protein substrate with inhibitors; assay type: biochemical; details: 60 minutes incubation, alpha-2-macroglobulin 0.2 μM, PPAck 20 μM
Experimental: The effect of the FRET-protein substrate on the thrombin activity in the absence and presence of alph-2-macroglobulin was then determined. Following addition of either thrombin (as above), thrombin incubated with alpha-2-macroglobulin for 60 minutes (as above) or thrombin incubated for 60 minutes with the thrombin inhibitor, PPAck (D-FPR-chloromethyl ketone, 20 μM), thrombin activity was determined. Thrombin was inhibited by either alpha-2-macroglobulin or PPAck, as shown by the reduction in the slope of the ratio for each (FIG. 11B).

Thrombin [3] = experiment: Thrombin activity on substrate S2238 with inhibitors; assay type: biochemical; details: 60 minutes incubation, alpha-2-macroglobulin 0.2 μM, PPAck 20 μM
Experimental: The effect of thrombin substrate, S2238, on thrombin activity in the presence and absence of alpha-2-macroglobulin was then determined. Following addition of thrombin (as above), thrombin incubated with alpha-2-macroglobulin for 60 minutes (as above), thrombin incubated with PPAck (as above) for 60 minutes, or thrombin incubated with alpha-2-macroglobulin (0.2 μM) and PPAck (20 μM) for 60 minutes, to S2238, thrombin activity was determined.

Thrombin [4] = experiment: Fibrinogen clotting by thrombin, turbidity at 405 nm; assay type: biochemical; details: 0.2 μM
Experimental: The effect of alpha-2-macroglobulin on thrombin activity was determined. Thrombin (2 nM) and calcium (5 mM) were combined in PIPES buffer. Clotting was initiated by the addition of fibrinogen (3 μM). Clotting was measured by monitoring turbidity 405 nm using a spectrometer. The fibrinogen clotted within 10 minutes and remained clotted.

Molecule	area-under-the-curve of slope of the ratio curve [1]	maximal upslope of slope of the ratio curve [1]	peak height of slope of the ratio curve [1]	thrombin generation [1]	thrombin activity (slope of the ratio) (Thrombin [2])	thrombin activity (slope of absorbance) (Thrombin [3])	also measured
O=C(NC[C@H]1CN(c2ccc(N3CCOCC3=O)cc2)C(=O)O1)c1ccc(Cl)s1 [rivaroxaban]	decreased	decreased	decreased	decrease thrombin generation	–	–	–
COc1ccc(-n2nc(C(N)=O)c3c2C(=O)N(c2ccc(N4CCCCC4=O)cc2)CC3)cc1 [apixaban]	decreased	decreased	decreased	decreases thrombin generation	–	–	time to peak ([1]; anticoagulant in whole blood, dabigatran at higher concentrations): increase the time to peak
NC(N)=NCCC[C@H](NC(=O)[C@@H]1CCCN1C(=O)[C@H](N)Cc1ccccc1)C(=O)CCl [PPAck, D-FPR-chloromethyl ketone]	–	–	–	–	inhibited	substantial inhibition	–
corn trypsin inhibitor	–	–	–	–	–	–	thrombin generation (peak of slope of ratio) ([1]; 200 μg/mL final concentration, unanticoagulated whole blood): delay and reduce
B1	–	–	–	–	inhibited	little inhibition	clotting of fibrinogen (Thrombin [4]; pre-incubation with thrombin (2 nM) for 35 minutes): reduced clotting; clotting of fibrinogen (Thrombin [4]; pre-incubation with thrombin (2 nM) for 60 minutes): inhibited clotting
